Laboratory results: patent publication US20240189309A1, “TYK2 INHIBITORS AND USES THEREOF” (Sudo Biosciences Limited, priority 2021, published 2024)

Tests used:
[1] = molecular target: T1, JAK3-JH1 (Homo sapiens, UniProt P52333); experiment: HTRF-based selectivity assay, JAK3 catalytic domain; type: biochemical; conditions: kinase domain (JH1), ATP 2.12 μM
T1 construct: recombinant purified His or GST-tagged catalytic domain for each enzyme; purchased Carna biosciences 08-046
Method: (§1) Example B-2: HTRF-Based Selectivity Assay
(§2) The ability of compounds to inhibit the activity of JAK1, JAK2, JAK3 and TYK2 is measured using a recombinant purified His or GST-tagged catalytic domain for each enzyme (JAK1, JAK2 and TYK2 are generated in-house; JAK3 was purchased from Carna biosciences, Cat #08-046) in an HTRF format biochemical assay. The reactions employs a commercial peptide substrate from Cisbio (Cat #62TK0PEC). The basic assay protocol is as follows: first, 2.5 μL of diluted compounds (4×) in DMSO are dispensed into a 384-well Optiplate. Next, 2.5 μL of enzyme (final concentrations for enzymes are: TYK2—700 ng/mL, JAK1—80.6 ng/mL, JAK2—2.1 ng/mL and JAK3—171.8 ng/mL) is added and incubated at RT for 5-20 min. Finally, 5 μl of mixture of 2×ATP [Final concentration 20 μM for TYK2, 21.43 μM for JAK1, 14.7 μM for JAK2 and 2.12 μM for JAK3]+2× Substrate [Final concentration 217 nM for TYK2, 454.7 nM for JAK1, 200 nM for JAK2 and 257.4 nM for JAK3] is added to 384 well Optiplate. Composition of Kinase assay buffer used in the assay is as follows: HEPES 50 mM, EGTA 1 mM, MgCl2 10 mM, DTT 2 mM, Tween-20 0.01% and water. Then the plates are shaken and then incubated at 26.5° C. for 60 min.

[2] = molecular target: T2, TYK2 Pseudokinase (JH2) (Homo sapiens, UniProt P29597); experiment: HEK-Blue IL-23 reporter assay (SEAP) for profiling TYK2 pseudokinase (JH2) inhibition; type: cell-based; parameters: HEK-Blue™ IL-23 and IFNα/β cells with a stably-integrated cytokine receptor and STAT3 or STAT1; endogenous in cells; host or cells: HEK-Blue IL-23 and HEK-Blue IFNα/β cells; conditions: HEK-Blue IL-23 cells, 10 ng/mL human recombinant IL-23, SEAP reporter; read-out: IL23 (TYK2 inhibitory activity, IC50)
T2 sequence (P29597 whole entry): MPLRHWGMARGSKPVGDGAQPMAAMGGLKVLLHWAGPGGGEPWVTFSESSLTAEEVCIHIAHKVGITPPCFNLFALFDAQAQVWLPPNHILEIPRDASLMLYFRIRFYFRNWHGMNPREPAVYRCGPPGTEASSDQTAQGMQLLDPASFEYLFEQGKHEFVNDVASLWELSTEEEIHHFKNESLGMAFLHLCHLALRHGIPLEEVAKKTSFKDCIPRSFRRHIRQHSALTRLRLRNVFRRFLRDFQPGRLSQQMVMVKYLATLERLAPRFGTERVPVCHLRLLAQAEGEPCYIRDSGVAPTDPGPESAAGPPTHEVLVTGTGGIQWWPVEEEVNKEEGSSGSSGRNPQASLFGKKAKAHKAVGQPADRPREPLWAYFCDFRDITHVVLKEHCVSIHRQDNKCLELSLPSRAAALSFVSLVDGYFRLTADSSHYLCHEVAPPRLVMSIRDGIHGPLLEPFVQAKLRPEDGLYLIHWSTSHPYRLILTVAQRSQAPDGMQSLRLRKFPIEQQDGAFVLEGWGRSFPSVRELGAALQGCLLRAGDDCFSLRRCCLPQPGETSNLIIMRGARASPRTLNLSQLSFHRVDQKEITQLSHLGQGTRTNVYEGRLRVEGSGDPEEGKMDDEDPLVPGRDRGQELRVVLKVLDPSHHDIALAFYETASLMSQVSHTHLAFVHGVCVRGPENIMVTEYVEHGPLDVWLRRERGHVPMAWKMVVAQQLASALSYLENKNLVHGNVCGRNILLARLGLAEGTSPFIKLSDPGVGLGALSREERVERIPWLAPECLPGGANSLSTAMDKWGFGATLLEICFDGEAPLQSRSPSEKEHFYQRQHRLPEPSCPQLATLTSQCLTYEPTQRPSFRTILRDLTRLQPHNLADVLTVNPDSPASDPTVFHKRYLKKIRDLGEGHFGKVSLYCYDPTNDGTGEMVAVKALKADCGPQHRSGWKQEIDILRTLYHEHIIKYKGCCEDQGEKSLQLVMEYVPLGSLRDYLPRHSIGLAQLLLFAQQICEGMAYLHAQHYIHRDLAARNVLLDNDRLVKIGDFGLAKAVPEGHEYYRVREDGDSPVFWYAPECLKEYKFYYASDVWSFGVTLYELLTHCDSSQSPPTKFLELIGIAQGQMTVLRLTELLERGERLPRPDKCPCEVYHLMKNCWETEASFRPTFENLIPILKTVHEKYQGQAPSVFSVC
Method: (§3) Example B-1: HEK-Blue™ IL-23 and IFNα/β Reporter Assays for Profiling TYK2 Pseudokinase (JH2) Inhibition
(§4) HEK-Blue™ IL-23 and IFNα/β cells with a stably-integrated cytokine receptor and STAT3 or STAT1 express STAT-inducible secreted embryonic alkaline phosphatase (SEAP) reporter gene upon cytokine stimulation. These cells are plated in DMEM (Gibco) containing 10% heat-inactivated FBS (Gibco) and 100 U/mL PenStrep (Gibco) at 37° C. under 5% CO2 conditions for 20-22 hours. The cells are then pretreated with serially diluted test compounds for 60 min prior to stimulation with either 10 ng/mL human recombinant IL-23 (Miltenyl Biotech) or 1 ng/mL human recombinant IFNα (InvivoGen) for 22-24 hours for IL-23 or 16-18 h for IFNα. SEAP induction is measured using the QUANTI Blue™ Solution (InvivoGen) according to the manufacturer's instructions.

[3] = test system: HEK-Blue™ IL-2 reporter cells; experiment: HEK-Blue IL-2 reporter assay (SEAP) for determining selectivity; type: cell-based; conditions: HEK-Blue IL-2 cells, 4 ng/mL human recombinant IL-2, SEAP reporter
Method: (§5) Example B-3: HEK-Blue™ IL-2 and IFNγ Reporter Assays for Determining Selectivity
(§6) HEK-Blue™ IL-2 and IFNγ reporter cells with a stably-integrated cytokine receptor and STAT5 or STAT1 express STAT-inducible secreted embryonic alkaline phosphatase (SEAP) reporter gene upon cytokine stimulation. These cells were plated in DMEM (Gibco) containing 10% heat-inactivated FBS (Gibco) and 100 U/mL PenStrep (Gibco) at 37° C. under 5% CO2 conditions for 20-22 hours. The cells were then pre-treated with serially diluted test compounds for 60 min prior to stimulation with either 4 ng/mL human recombinant IL-2 (Miltenyl Biotech) or 50 ng/mL human recombinant IFNγ (InvivoGen) for 24 hours. SEAP induction was measured using the QUANTI-Blue™ Solution (InvivoGen) according to the manufacturer's instructions.

[4] = molecular target: T3, JAK1-JH1 (Homo sapiens, UniProt P23458); experiment: HTRF-based selectivity assay, JAK1 catalytic domain; type: biochemical; conditions: kinase domain (JH1), ATP 21.43 μM
T3 construct: recombinant purified His or GST-tagged catalytic domain for each enzyme; made in house
T3 sequence (P23458 875-1153 limits assumed): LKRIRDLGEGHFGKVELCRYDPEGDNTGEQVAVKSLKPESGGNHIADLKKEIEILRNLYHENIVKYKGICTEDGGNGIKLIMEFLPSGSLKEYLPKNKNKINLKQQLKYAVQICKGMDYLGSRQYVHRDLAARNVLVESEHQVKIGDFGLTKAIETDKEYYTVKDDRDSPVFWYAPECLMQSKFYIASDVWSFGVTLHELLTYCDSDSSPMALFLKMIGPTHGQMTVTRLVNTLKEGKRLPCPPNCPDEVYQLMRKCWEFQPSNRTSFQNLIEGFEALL
Method: as §1, §2

[5] = molecular target: T4, TYK2-JH1 (Homo sapiens, UniProt P29597); experiment: HTRF-based selectivity assay, TYK2 catalytic domain; type: biochemical; conditions: kinase domain (JH1), ATP 20 μM
T4 construct: recombinant purified His or GST-tagged catalytic domain for each enzyme; made in house
T4 sequence (P29597 897-1176 limits assumed): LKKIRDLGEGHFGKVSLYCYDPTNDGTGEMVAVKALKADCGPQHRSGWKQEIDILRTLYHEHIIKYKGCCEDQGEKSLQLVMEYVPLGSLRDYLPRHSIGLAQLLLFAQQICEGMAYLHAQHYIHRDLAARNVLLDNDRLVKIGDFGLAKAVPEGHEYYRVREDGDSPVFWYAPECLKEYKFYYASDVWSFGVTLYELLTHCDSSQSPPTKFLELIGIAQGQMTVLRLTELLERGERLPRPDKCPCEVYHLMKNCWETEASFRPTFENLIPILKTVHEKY
Method: as §1, §2

[6] = test system: HEK-Blue™ IFNγ reporter cells; experiment: HEK-Blue IFNγ reporter assay (SEAP) for determining selectivity; type: cell-based; conditions: 50 ng/mL human recombinant IFNγ, read-out: IFN-γ (SEAP selectivity, IC50)
Method: as §5, §6

[7] = molecular target: T2, TYK2 Pseudokinase (JH2); experiment: HEK-Blue IFNα/β reporter assay (SEAP) for profiling TYK2 pseudokinase (JH2) inhibition; type: cell-based; conditions: HEK-Blue IFNα/β cells, 1 ng/mL human recombinant IFNα, read-out: IFNα (TYK2 inhibitory activity, IC50)
Method: as §3, §4

[8] = molecular target: T5, JAK2-JH1 (Homo sapiens, UniProt O60674); experiment: HTRF-based selectivity assay, JAK2 catalytic domain; type: biochemical; conditions: kinase domain (JH1), ATP 14.7 μM
T5 construct: recombinant purified His or GST-tagged catalytic domain for each enzyme; made in house
T5 sequence (O60674 849-1124 limits assumed): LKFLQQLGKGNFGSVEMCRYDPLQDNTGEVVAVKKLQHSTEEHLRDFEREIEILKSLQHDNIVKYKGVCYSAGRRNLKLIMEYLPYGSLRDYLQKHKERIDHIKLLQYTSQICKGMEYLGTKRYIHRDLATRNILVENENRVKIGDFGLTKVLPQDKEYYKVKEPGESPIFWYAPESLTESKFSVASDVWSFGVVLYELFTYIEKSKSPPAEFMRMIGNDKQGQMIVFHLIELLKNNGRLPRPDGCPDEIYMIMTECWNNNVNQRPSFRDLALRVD
Method: as §1, §2

T1 sequence (P52333 822-1111 limits assumed): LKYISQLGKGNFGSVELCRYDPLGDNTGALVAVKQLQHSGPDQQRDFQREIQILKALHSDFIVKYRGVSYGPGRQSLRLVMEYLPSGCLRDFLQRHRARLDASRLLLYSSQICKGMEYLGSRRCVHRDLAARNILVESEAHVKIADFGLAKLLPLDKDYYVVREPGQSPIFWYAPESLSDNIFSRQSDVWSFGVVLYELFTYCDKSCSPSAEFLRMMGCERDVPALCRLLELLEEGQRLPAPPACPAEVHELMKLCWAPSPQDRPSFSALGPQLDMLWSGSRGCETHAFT

IC50 [1]	IC50 [2]	IC50 [4]	IC50 [5]	IC50 [7]	IC50 [8]	Compound	IC50 [3]	IC50 [6]
> 1000 nM	< 30 nM	> 1000 nM	> 1000 nM	< 30 nM	> 1000 nM	[2H]C([2H])([2H])NC(=O)c1cnc(Nc2ccc(F)cn2)cc1Nc1cccc2c1N(C)Cc1nn(C)c(=O)n1-2 [Compound 9, 4-((2,5-dimethyl-1-oxo-1,2,4,5-tetrahydro-[1,2,4]triazolo[4,3-a]quinoxalin-6-yl)amino)-6-((5-fluoropyridin-2-yl)amino)-N-(methyl-d3)nicotinamide]	> 1000 nM	> 1000 nM
> 1000 nM	< 30 nM	> 1000 nM	> 1000 nM	30 to 300 nM	> 1000 nM	[2H]C([2H])([2H])NC(=O)c1cnc(Nc2ccc(F)cn2)cc1Nc1cccc2c1N(C)Cc1nnnn1-2 [Compound 10, 6-((5-fluoropyridin-2-yl)amino)-N-(methyl-d3)-4-((5-methyl-4,5-dihydrotetrazolo[1,5-a]quinoxalin-6-yl)amino)nicotinamide]	> 1000 nM	> 1000 nM
> 1000 nM	< 30 nM	> 1000 nM	> 1000 nM	< 30 nM	> 1000 nM	[2H]C([2H])([2H])NC(=O)c1cnc(NC(=O)C2CC2)cc1Nc1cccc2c1N(C)Cc1nn(C)c(=O)n1-2 [Compound 8, 6-(cyclopropanecarboxamido)-4-((2,5-dimethyl-1-oxo-1,2,4,5-tetrahydro-[1,2,4]triazolo[4,3-a]quinoxalin-6-yl)amino)-N-(methyl-d3)nicotinamide]	> 1000 nM	300 to 1000 nM
> 1000 nM	< 30 nM	> 1000 nM	> 1000 nM	< 30 nM	> 1000 nM	[2H]C([2H])([2H])NC(=O)c1cnc(Nc2cc(C)nc(C)n2)cc1Nc1cccc2c1N(C)Cc1nn(C)c(=O)n1-2 [Compound 12, 4-((2,5-dimethyl-1-oxo-1,2,4,5-tetrahydro-[1,2,4]triazolo[4,3-a]quinoxalin-6-yl)amino)-6-((2,6-dimethylpyrimidin-4-yl)amino)-N-(methyl-d3)nicotinamide]	> 1000 nM	> 1000 nM
